Measured values published in patent US9089569B2, “1,2,6-substituted benzimidazoles as flap modulators” (JANSSEN PHARMACEUTICA NV, priority 2013, dated 2015).
Where a name gives a salt, the structure may show the parent alone.

What was measured:
human FLAP = human FLAP (Homo sapiens (Human), UniProt P20292); test: FLAP binding assay (HTRF); settings: wild type FLAP-containing membranes, HTRF format
Procedure: The assay below is used to test the modulatory activity of compounds against FLAP. Human and mouse FLAP-encoding DNA was amplified by polymerase chain reaction and cloned into pFastBac1 (Invitrogen) with a NH2-terminal 6-His tag for expression in Spodoptera frugiperda (Sf-9) cells. FLAP-containing membranes were prepared as was a FITC-labeled FLAP modulator (3-(3-(tert-butylthio)-1-(4-chlorobenzyl)-5-(quinolin-2-ylmethoxy)-1H-indol-2-yl)-2,2-dimethylpropanoic acid). The FLAP binding assay is performed in HTRF format (homogeneous time resolved fluorescence). […] The reaction is allowed to proceed for two hours after which the plate is read on an Envision plate reader in HTRF mode. Data are expressed as a HTRF ratio.
For human FLAP binding assays, data are analyzed with 3DX Explorer software. […] For analysis, data from multiple runs are averaged and each compound may be tested in 2 to 20 runs. Each run comprises two plates and each plate includes duplicates. Data from each plate is averaged and data are imported into 3DX. The data from multiple runs are aggregated as the average of duplicates of the calculated ratios in order to calculate Ki and IC50 values. Numbers in parentheses are the number of runs for the assay.

[1] = tested on: leukotriene pathway in human whole blood (LTB4); test: Human whole blood assay (LTB4, A23187-stimulated); assay type: cell-based; settings: human whole blood diluted 1:1, calcium ionophore A23187 stimulation, LTB4 levels
Procedure: An in vitro cellular assay was performed using human whole blood collected in heparin-containing tubes, which was used to test the ability of compounds to modulate the leukotriene pathway in human whole blood. The blood was diluted 1:1 in RPMI medium, pre-incubated for 15 min at 37° Celsius with test compounds at various concentrations, and then stimulated with calcium ionophore, A23187 (7 μg/mL), for 30 min at 37° Celsius. The samples were then centrifuged and plasma was removed. The plasma was diluted in assay buffer and LTB4 levels were measured using a commercial kit (Enzo Life Sciences). The concentration of each compound that was required for half-maximal inhibition (modulation) of […] (IC50) was calculated by a 4-parameter equation using the program GraphPad Prism (GraphPad software). For analysis, data are imported into 3DX and aggregated as the average of duplicates of the calculated ratios in order to calculate Ki and IC50 values. Numbers in parentheses are the number of runs for the assay.

human FLAP, sequence (P20292 whole entry): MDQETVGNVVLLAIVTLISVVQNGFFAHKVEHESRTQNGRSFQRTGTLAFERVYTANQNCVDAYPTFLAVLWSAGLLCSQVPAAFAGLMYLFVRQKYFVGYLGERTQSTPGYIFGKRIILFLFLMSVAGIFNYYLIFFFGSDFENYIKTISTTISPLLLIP

Work on `Cn1ccc(COc2cc3c(cc2F)nc([C@@H]2CCCC[C@@H]2C(=O)O)n3Cc2ccc(OC(F)(F)F)cc2F)n1` (racemic) [Example 90, racemic cis-2-{5-Fluoro-1-[2-fluoro-4-(trifluoromethoxy)benzyl]-6-[(1-methyl-1H-pyrazol-3-yl)methoxy]-1H-benzimidazol-2-yl}cyclohexanecarboxylic acid] yielded a Ki (human FLAP) of 27 nM.
For `Cn1ccc(COc2ccc3nc([C@@H]4CCCC[C@@H]4C(=O)O)n(Cc4ccc(OC(F)(F)F)cc4)c3c2)n1` (relative stereo) [Example 36, (1S*,2R*)-2-{6-[(1-Methyl-1H-pyrazol-3-yl)methoxy]-1-[4-(trifluoromethoxy)benzyl]-1H-benzimidazol-2-yl}cyclohexanecarboxylic acid], the IC50 ([1]; Homo sapiens) was 590 nM.
Work on `Cn1ccc(COc2ccc3nc([C@@H]4CCCC[C@@H]4C(=O)O)n(Cc4ccc(OC(F)(F)F)cc4)c3c2)n1` (relative stereo) [Example 45, (1R*,2S*)-2-{6-[(1-Methyl-1H-pyrazol-3-yl)methoxy]-1-[4-(trifluoromethoxy)benzyl]-1H-benzimidazol-2-yl}cyclohexanecarboxylic acid] yielded an IC50 ([1]; Homo sapiens) greater than 10000 nM.
Compound `Cc1ccc(COc2ccc3nc([C@H]4CCCC[C@H]4C(=O)O)n(Cc4ccc(OC(F)(F)F)c(Cl)c4)c3c2)nc1` (racemic) [Example 32, racemic cis-2-{1-[3-Chloro-4-(trifluoromethoxy)benzyl]-6-[(5-methylpyridin-2-yl)methoxy]-1H-benzimidazol-2-yl}cyclohexanecarboxylic acid] has an IC50 [1] of 210 nM.
In the case of `CCC(CC)(Cc1nc2ccc(OCc3ccn(C)n3)cc2n1Cc1ccc(-c2ccc(C(F)(F)F)cc2)cc1)C(=O)O` [Example 188, 2-ethyl-2-((6-((1-methyl-1H-pyrazol-3-yl)methoxy)-1-((4′-(trifluoromethyl)-[1,1′-biphenyl]-4-yl)methyl)-1H-benzo[d]imidazol-2-yl)methyl)butanoic acid], the IC50 [1] is reported as 550 nM.
In the case of `Cc1ccc(COc2ccc3nc([C@@H]4[C@H](C(=O)O)C4(C)C)n(Cc4ccc(OC(F)(F)F)cc4)c3c2)nc1` (racemic) [Example 25, racemic cis-2,2-Dimethyl-3-{6-[(5-methylpyridin-2-yl)methoxy]-1-[4-(trifluoromethoxy)benzyl]-1H-benzimidazol-2-yl}cyclopropanecarboxylic acid], the IC50 [1] is reported as 3120 nM.
Compound `Cn1ccc(COc2cc(F)c3nc(C4CCCC[C@@H]4C(=O)O)n(Cc4ccc(N5CC(F)(F)C5)cc4)c3c2)n1` (mixture of isomers) [Example 168, racemic cis-2-{1-[4-(3,3-Difluoroazetidin-1-yl)benzyl]-4-fluoro-6-[(1-methyl-1H-pyrazol-3-yl)methoxy]-1H-benzimidazol-2-yl}cyclohexanecarboxylic acid as the formate salt] has an IC50 [1] of 3570 nM.
